Experimental data taken from patent EP0309566B1, “STLV-III-RELATED POLYPEPTIDES, DIAGNOSTIC SYSTEMS AND ASSAY METHODS” (JOHNSON AND JOHNSON, priority 1987, dated 1994).

Columns and labels:
antibodies to HIV-2 = assay: Specificity ELISA (Example 12, Figure 3), HIV-2 antibody positive sera; type: binding, human; conditions: 20 sera containing antibodies to HIV-2 but not to HIV-1 TMP gp41 (West Africans); positive O.D. above 0.150
[1] = tested on: sera from Swedish blood donors negative for HIV-1 and HIV-2 antibodies; assay: Specificity ELISA (Example 12, Figure 3), negative control sera; type: binding, human; conditions: 20 negative control sera; positive O.D. above 0.150
Description: In the Figures forming a portion of the disclosure of this invention: • Figure 1 illustrates a portion of the STLV-IIImac TMP amino acid residue sequence. The sequence is shown from left to right and in the direction of amino-terminus to carboxy-terminus in a single-letter code. The residue positions have been numbered as illustrated from 1-33. • Figure 2 illustrates, in a manner similar to Figure 1, a portion of the amino acid residue sequence of the HIV-1 TMP and represent gp41 amino acid residues […] as described in Ratner et al., Nature, 313:277-283 (1985). However, for ease of discussion, those residue positions have been renumbered as illustrated from 1-32. • Figure 3 contains 2 panels illustrating antibody determinations using a diagnostic system of this invention to assay (a) 20 sera from individuals in Guinea-Bissau previously determined to have antibodies against HIV-related viruses (West Africans), (b) 20 sera from HIV-1-infected individuals and (c) 20 sera from blood donors without antibodies to HIV-1 or HIV-2. Sera were considered positive (closed symbols) when they produced optical density (O.D.) values above 0.150 (the mean O.D. of negative samples plus 6 standard deviations). Negative sera are represented by open symbols. […]

In the case of AIEKYLEDQAQLNAWCAFRQVC [p80], the immunoreaction with sera (antibodies to HIV-2) was “pronounced reactions” and the immunoreaction with sera [1] was “did not produce any substantial immunoreaction”.
